The values that follow are results of earlier work, collected in patent US20200138880A1, “BACTERIA-BASED GEL COMPOSITIONS FOR TOPICAL APPLICATIONS AND USES THEREOF” (PROBIOTICAL S.P.A., priority 2016, published 2020).

The conditions of this series: well known; free melatonin not bound to globulins.

In the case of `COc1ccc2[nH]cc(CCNC(C)=O)c2c1` [melatonin], the “melatonin concentration in saliva as share of its plasma levels” value is 24%-33%.
